Some test systems named below: MALME-3M melanoma; XF 498 CNS; DLD-1 colon; OVCAR-4 ovarian; SNB-19 CNS; CAKI-1 renal; T-47D breast; NCI/ADR-RES ovarian; MDA-MB-435; PC-3 prostate.
Assay in all cases: DTP human tumour cell line panel, 48 h

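All cell lines were grown in 96-well plates and treated with compound for 48 hours. GI50 = concentration required for 50% inhibition of growth. At the TGI there is no net growth.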

The term TGI denotes the concentration giving total growth inhibition. For `Cc1c(Cl)cccc1NC(=O)C(=O)C(C(=O)c1ccccc1-c1ccccc1)C1OC(=O)c2ccccc21` (configuration not stated), the TGI in the test on MALME-3M melanoma amounted to 28.8 µM; in the test on XF 498 CNS, 29.3 µM; in the test with DLD-1 colon, 49.1 µM.

Consider `Cc1cc(NCCCCCCCCNc2cc(C)nc3cc(N)ccc23)c2ccc(N)cc2n1`, for which the TGI is > 100 µM in the test on OVCAR-4 ovarian, 45.4 µM in the test on SNB-19 CNS, > 100 µM with CAKI-1 renal and > 100 µM in the test with DLD-1 colon.

Broadly, the GI50 is the concentration at which growth is held to half of that of the control. `N.N.N.N.N.[Co+3].[I-].[N-]=[N+]=[N-]`: the GI50 in the test with OVCAR-4 ovarian, with MALME-3M melanoma, in the test on SNB-19 CNS and in the test on DLD-1 colon was > 100 µM in each case. In addition, the TGI in the test with OVCAR-4 ovarian, in the test on MALME-3M melanoma, in the test on SNB-19 CNS and with DLD-1 colon was > 100 µM each time.

For the molecule `O=C1C2Nc3ccccc3SC2C(=O)N1c1ccc(Br)cc1` (configuration not stated), the TGI with OVCAR-4 ovarian was 74.2 µM; in the test with MALME-3M melanoma, > 100 µM; in the test with SNB-19 CNS, > 100 µM; in the test on XF 498 CNS, > 100 µM; in the test with DLD-1 colon, > 100 µM.

Turning to `COc1ccc(NC(=O)C(=O)c2c(O)c3ccc(O)cc3oc2=O)c([N+](=O)[O-])c1`, the TGI in the test with OVCAR-4 ovarian, in the test on MALME-3M melanoma, with SNB-19 CNS, in the test on CAKI-1 renal and with DLD-1 colon was > 100 µM in each case.

Turning to `CCCCCCCCCCCCOC1C(CNC(=O)C2OC3OC(C)(C)OC3C2NC(=O)Nc2ccc(CC(=O)OC)cc2)OC2OC(C)(C)OC21` (configuration not stated), the GI50 in the test with OVCAR-4 ovarian was > 100 µM; in the test on T-47D breast, > 100 µM; in the test with MALME-3M melanoma, > 78.1 µM; in the test on SNB-19 CNS, > 100 µM; in the test with NCI/ADR-RES ovarian, > 100 µM; in the test on MDA-MB-435 it was > 100 µM. The GI50 with CAKI-1 renal is 47 µM; in the test on PC-3 prostate, > 100 µM. Also, the TGI in the test with OVCAR-4 ovarian, in the test on T-47D breast, with MALME-3M melanoma, in the test on SNB-19 CNS, in the test with NCI/ADR-RES ovarian and in the test with MDA-MB-435 was > 100 µM throughout. Besides, the TGI with CAKI-1 renal and in the test on PC-3 prostate was > 100 µM in each case.

`CC(C)C1=CC(=O)C(C)(C2C(O)CC3(C)C4CC=C5C(CCC(OC6OC(CO)C(O)C(O)C6OC6OC(C)C(O)C(O)C6O)C5(C)C)C4(C)C(=O)CC23C)O1` (configuration not stated): the TGI with OVCAR-4 ovarian, with T-47D breast, with MALME-3M melanoma, in the test with SNB-19 CNS, in the test on NCI/ADR-RES ovarian and with MDA-MB-435 was > 100 µM in each case. The TGI in the test on CAKI-1 renal and in the test on PC-3 prostate was > 100 µM in each case.

Turning to `Cn1cc(C(=O)c2ccccc2)c2ccccc2c1=O`, the TGI with OVCAR-4 ovarian, in the test with MALME-3M melanoma, with CAKI-1 renal, in the test with XF 498 CNS and with DLD-1 colon was > 100 µM in each case.

For `CC(C)c1[nH]nc(C(N)=O)c1N=NN(C)C`, the TGI in the test on OVCAR-4 ovarian, in the test on T-47D breast, with MALME-3M melanoma, with SNB-19 CNS, with NCI/ADR-RES ovarian and in the test on MDA-MB-435 was > 100 µM each time. The concentration for total growth inhibition (TGI) in the test on CAKI-1 renal is 65.4 µM; with PC-3 prostate it was > 100 µM.

Take `c1ccc2sc(SCCSc3nc4ccccc4s3)nc2c1`: the TGI in the test on OVCAR-4 ovarian, with T-47D breast, with MALME-3M melanoma, in the test with SNB-19 CNS, in the test on NCI/ADR-RES ovarian and with MDA-MB-435 was > 100 µM in each case. Moreover, the TGI in the test on CAKI-1 renal and in the test on PC-3 prostate was > 100 µM throughout.

For the molecule `COc1ccc(C2=N[C@@H](Cc3ccccc3)C(=O)Nc3ccsc32)cc1`, the GI50 in the test with OVCAR-4 ovarian is 11.2 µM; in the test with T-47D breast, 5.64 µM; in the test on MALME-3M melanoma, 10.4 µM; in the test with SNB-19 CNS, 9.93 µM; in the test with NCI/ADR-RES ovarian, 3.84 µM; in the test on MDA-MB-435, 1.52 µM. In addition, the values for the GI50 with CAKI-1 renal and in the test with PC-3 prostate were 3.87 µM and 3.78 µM, respectively. In addition, the TGI is 83 µM in the test with OVCAR-4 ovarian; 48.4 µM in the test with T-47D breast; 25.9 µM with MALME-3M melanoma; 58.3 µM in the test with SNB-19 CNS; 33 µM in the test on NCI/ADR-RES ovarian; 4 µM in the test on MDA-MB-435. The results for the TGI in the test with CAKI-1 renal and in the test with PC-3 prostate were 33.8 µM and 25.2 µM, respectively.

For the molecule `COc1ccc(/C=C/C(=O)c2cc(OC)c(OC)c(OC)c2)cc1OCC(=O)Nc1nc2ccc(OC(F)(F)F)cc2s1`, the GI50 in the test with OVCAR-4 ovarian is 2.07 µM; in the test on T-47D breast, 3.08 µM; in the test on MALME-3M melanoma it was 2.69 µM; with SNB-19 CNS, 1.58 µM; in the test with NCI/ADR-RES ovarian, 0.492 µM; in the test with MDA-MB-435, 0.3 µM. For the same molecule, the GI50 is 2.2 µM in the test with CAKI-1 renal and 3.14 µM in the test with PC-3 prostate. The TGI in the test on OVCAR-4 ovarian was 5.14 µM; in the test on T-47D breast, 10.9 µM; in the test with MALME-3M melanoma, 13.5 µM; with SNB-19 CNS, 51.8 µM; in the test with NCI/ADR-RES ovarian it was 2.31 µM; with MDA-MB-435 it was 1.08 µM. Also, the total growth inhibition concentration (TGI) in the test on CAKI-1 renal was determined as 6.03 µM; in the test with PC-3 prostate, 7.82 µM.

These data come from PubChem BioAssay (NCI).
